Assay results published in patent US7977322B2 (Vertex Pharmaceuticals Incorporated, priority 2004, dated 2011).

Biological target: T1, ΔF508-CFTR (Homo sapiens, UniProt P13569, DEL508-508)
T1 construct: expressed in transfected cells
Test: Membrane potential optical (FRET/VIPR) assay, identification of correction compounds
Assay type: cell-based
Settings: Table 3, assay not given; for Emax: read-out: % Activity / % Efficacy (relative efficacy)
Excerpt: I) Membrane Potential Optical Methods for Assaying ΔF508-CFTR Modulation Properties of Compounds
These voltage sensitive assays are based on the change in fluorescence resonant energy transfer (FRET) between the membrane-soluble, voltage-sensitive dye, DiSBAC2(3), and a fluorescent phospholipid, CC2-DMPE, which is attached to the outer leaflet of the plasma membrane and acts as a FRET donor. Changes in membrane potential (Vm) cause the negatively charged DiSBAC2(3) to redistribute across the plasma membrane and the amount of energy transfer from CC2-DMPE changes accordingly. The changes in fluorescence emission were monitored using VIPR™ II, which is an integrated liquid handler and fluorescent detector designed to conduct cell-based screens in 96- or 384-well microtiter plates.
Identification of Correction Compounds
To identify small molecules that correct the trafficking defect associated with ΔF508-CFTR; a single-addition HTS assay format was developed. The cells were incubated in serum-free medium for 16 hrs at 37° C. in the presence or absence (negative control) of test compound. As a positive control, cells plated in 384-well plates were incubated for 16 hrs at 27° C. to “temperature-correct” ΔF508-CFTR. The cells were subsequently rinsed 3× with Krebs Ringers solution and loaded with the voltage-sensitive dyes. To activate ΔF508-CFTR, 10 μM forskolin and the CFTR potentiator, genistein (20 μM), were added along with Cl^− free medium to each well. The addition of Cl^− free medium promoted Cl^− efflux in response to ΔF508-CFTR activation and the resulting membrane depolarization was optically monitored using the FRET-based voltage-sensor dyes.
• Bath Solution #1: (in mM) NaCl 160, KCl 4.5, CaCl2 2, MgCl2 1, HEPES 10, pH 7.4 with NaOH. • Chloride-free bath solution: Chloride salts in Bath Solution #1 are substituted with gluconate salts. • CC2-DMPE: Prepared as a 10 mM stock solution in DMSO and stored at −20° C. • DiSBAC2(3): Prepared as a 10 mM stock in DMSO and stored at −20° C.
NIH3T3 mouse fibroblasts stably expressing ΔF508-CFTR are used for optical measurements of membrane potential. The cells are maintained at 37° C. in 5% CO2 and 90% humidity in Dulbecco's modified Eagle's medium supplemented with 2 mM glutamine, 10% fetal bovine serum, 1×NEAA, β-ME, 1×pen/strep, and 25 mM HEPES in 175 cm^2 culture flasks. For all optical assays, the cells were seeded at 30,000/well in 384-well matrigel-coated plates and cultured for 2 hrs at 37° C. before culturing at 27° C. for 24 hrs. for the potentiator assay.

T1 sequence (P13569 with tags, fused parts or gaps DEL508-508): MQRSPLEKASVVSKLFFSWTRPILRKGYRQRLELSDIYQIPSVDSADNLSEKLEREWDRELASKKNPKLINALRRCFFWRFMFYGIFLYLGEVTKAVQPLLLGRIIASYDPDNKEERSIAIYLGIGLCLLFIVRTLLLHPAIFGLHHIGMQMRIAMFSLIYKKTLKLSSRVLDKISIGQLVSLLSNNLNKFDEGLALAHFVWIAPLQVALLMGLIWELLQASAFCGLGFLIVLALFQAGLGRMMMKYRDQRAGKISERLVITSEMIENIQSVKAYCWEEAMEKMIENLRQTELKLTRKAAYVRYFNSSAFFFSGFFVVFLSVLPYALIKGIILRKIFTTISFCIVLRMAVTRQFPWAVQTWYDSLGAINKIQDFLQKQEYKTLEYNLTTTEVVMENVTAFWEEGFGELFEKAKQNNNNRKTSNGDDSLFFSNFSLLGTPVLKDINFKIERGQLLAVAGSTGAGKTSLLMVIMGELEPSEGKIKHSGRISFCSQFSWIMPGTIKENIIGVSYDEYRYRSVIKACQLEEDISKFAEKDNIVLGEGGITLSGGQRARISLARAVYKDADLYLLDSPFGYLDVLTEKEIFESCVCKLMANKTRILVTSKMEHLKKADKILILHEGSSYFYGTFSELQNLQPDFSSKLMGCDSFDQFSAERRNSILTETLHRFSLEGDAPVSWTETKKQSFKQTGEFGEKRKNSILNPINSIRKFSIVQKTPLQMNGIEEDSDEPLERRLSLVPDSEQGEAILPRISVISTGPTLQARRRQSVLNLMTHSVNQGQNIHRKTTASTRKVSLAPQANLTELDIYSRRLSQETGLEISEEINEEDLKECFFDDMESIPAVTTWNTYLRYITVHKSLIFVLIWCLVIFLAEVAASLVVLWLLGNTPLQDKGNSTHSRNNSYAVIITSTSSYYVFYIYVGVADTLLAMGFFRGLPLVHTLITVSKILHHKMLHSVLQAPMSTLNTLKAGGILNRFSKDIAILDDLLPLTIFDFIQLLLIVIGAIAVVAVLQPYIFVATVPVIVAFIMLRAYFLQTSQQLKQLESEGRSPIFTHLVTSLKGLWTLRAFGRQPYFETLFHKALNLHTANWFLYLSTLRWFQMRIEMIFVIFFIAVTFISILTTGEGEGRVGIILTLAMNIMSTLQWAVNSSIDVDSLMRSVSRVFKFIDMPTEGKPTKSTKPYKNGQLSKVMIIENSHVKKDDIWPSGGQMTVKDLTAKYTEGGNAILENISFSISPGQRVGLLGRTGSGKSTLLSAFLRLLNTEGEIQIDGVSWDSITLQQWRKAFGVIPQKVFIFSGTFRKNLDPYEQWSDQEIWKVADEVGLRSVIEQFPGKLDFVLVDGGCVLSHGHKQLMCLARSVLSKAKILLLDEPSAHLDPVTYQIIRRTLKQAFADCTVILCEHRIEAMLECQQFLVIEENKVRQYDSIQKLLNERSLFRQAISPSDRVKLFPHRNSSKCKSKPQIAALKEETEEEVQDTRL

Compound	EC50 [µM]	Emax [%]	% Activity / % Efficacy (relative efficacy)
O=C(Nc1ncc(-c2ccncc2)s1)C1(c2ccc3c(c2)OCO3)CC1 [Example 299]	10 to 25	25 to 100	–
O=C(Nc1ncc([C@H](O)c2ccccc2Cl)s1)C1(c2ccc3c(c2)OCO3)CC1 [Example 323]	< 10	> 100	–
O=C(Nc1ncc(Cc2ccccc2Cl)s1)C1(c2ccc(O)cc2)CC1 [Example 317]	< 10	25 to 100	–
COC[C@H]1CCCN1C(Cc1ccccc1Cl)c1cnc(NC(=O)C2(c3ccc4c(c3)OCO4)CC2)s1 (some centres unmarked) [Example 455]	< 10	> 100	–
COCCN1CCN(C(c2cnc(NC(=O)C3(c4ccc5c(c4)OCO5)CC3)s2)c2ccccc2Cl)CC1 (centres unmarked) [Example 238]	< 10	–	+++ (“+++” means>100%)
CCN(CC)C(c1cnc(NC(=O)C2(c3ccc4c(c3)OCO4)CC2)s1)c1ccccc1OC (centres unmarked) [Example 365]	< 10	> 100	–
CSc1ccc(C2(C(=O)Nc3ncc(Cc4ccccc4Cl)s3)CC2)cc1 [Example 175]	< 10	–	+++ (“+++” means>100%)
O=C(Nc1ncc(C(OCCCCN2CCC(O)CC2)c2ccccc2Cl)s1)C1(c2ccc3c(c2)OCO3)CC1 (centres unmarked) [Example 279]	< 10	–	+++ (“+++” means>100%)
COc1cccc(C(c2cnc(NC(=O)C3(c4ccc5c(c4)OCO5)CC3)s2)N2CCC[C@@H]2C(N)=O)c1 (some centres unmarked) [Example 370]	< 10	> 100	–
CCOc1ccccc1C(c1cnc(NC(=O)C2(c3ccc4c(c3)OCO4)CC2)s1)N1CC[C@@H](O)C1 (some centres unmarked) [Example 473]	< 10	> 100	–
CS(=O)(=O)c1ccc(C(c2cnc(NC(=O)C3(c4ccc5c(c4)OCO5)CC3)s2)N2CCC(O)CC2)cc1 (centres unmarked) [Example 380]	10 to 25	25 to 100	–
COc1ccccc1C1(C(=O)Nc2ncc(C(c3ccccc3Cl)N3CC[C@@H](O)C3)s2)CC1 (some centres unmarked) [Example 443]	< 10	25 to 100	–
CCC(c1cnc(NC(=O)C2(c3ccc4c(c3)OCO4)CC2)s1)N1CC[C@@H](O)C1 (some centres unmarked) [Example 402]	10 to 25	> 100	–
O=C(Nc1ncc(CN2CC[C@H](O)C2)s1)C1(c2ccc3c(c2)OCO3)CC1 [Example 320]	10 to 25	> 100	–
COc1ccc(C2(C(=O)Nc3ncc(C(c4ccccc4Cl)N4CC[C@@H](O)C4)s3)CC2)cc1OC (some centres unmarked) [Example 451]	< 10	> 100	–
CCC[C@@H](CO)NC(c1cnc(NC(=O)C2(c3ccc4c(c3)OCO4)CC2)s1)c1ccccc1Cl (some centres unmarked) [Example 485]	< 10	> 100	–
COCC1CCCN1C(c1ccc(S(C)(=O)=O)cc1)c1cnc(NC(=O)C2(c3ccc4c(c3)OCO4)CC2)s1 (centres unmarked) [Example 375]	10 to 25	25 to 100	–
CN1CCCC1CCNC(c1cnc(NC(=O)C2(c3ccc4c(c3)OCO4)CC2)s1)c1ccccc1Cl (centres unmarked) [Example 405]	< 10	25 to 100	–
O=C(Nc1ncc(C(c2ccccc2Cl)N2CC[C@@H](O)C2)s1)C1(c2cccc(F)c2)CC1 (some centres unmarked) [Example 447]	< 10	> 100	–
COc1ccc(C2(C(=O)Nc3ncc(Cc4c(F)cccc4OC)s3)CC2)cc1 [Example 193]	< 10	–	+++ (“+++” means>100%)
COc1ccc(C2(C(=O)Nc3ncc(Sc4ccccc4N)s3)CC2)cc1 [Example 95]	< 10	25 to 100	–
O=C(Nc1ncc(CN2CC[C@@H](O)C2)s1)C1(c2ccc3c(c2)OCO3)CC1 [Example 319]	10 to 25	25 to 100	–
COc1cccc(Cc2cnc(NC(=O)C3(c4ccc5c(c4)OCO5)CC3)s2)c1 [Example 181]	< 10	–	+++ (“+++” means>100%)
COc1ccccc1C(c1cnc(NC(=O)C2(c3ccc4c(c3)OCO4)CC2)s1)N1CCCC1 (centres unmarked) [Example 354]	< 10	> 100	–
CCCC[C@H](CO)NC(c1cnc(NC(=O)C2(c3ccc4c(c3)OCO4)CC2)s1)c1ccccc1Cl (some centres unmarked) [Example 497]	< 10	> 100	–
Nc1ccc(Sc2cnc(NC(=O)C3(c4ccc5c(c4)OCO5)CC3)s2)cc1 [Example 100]	< 10	–	++ (“++” means between 25% to 100%)

Compound	EC50 [µM]	Emax [%]	% Activity / % Efficacy (relative efficacy)
O=C(Nc1nc2c(s1)-c1ccccc1CC2)C1(c2ccc3c(c2)OCO3)CC1 [Example 110]	< 10	–	+++ (“+++” means>100%)
COc1ccc(C2(C(=O)Nc3ncc(Sc4cccc(Cl)c4)s3)CC2)cc1 [Example 37]	< 10	> 100	–
O=C(Nc1ncc(C(c2ccc(Cl)cc2)N2CC[C@@H](O)C2)s1)C1(c2ccc3c(c2)OCO3)CC1 (some centres unmarked) [Example 335]	< 10	> 100	–
O=C(Nc1ncc(C(c2ccccc2)N2CCC(O)CC2)s1)C1(c2ccc3c(c2)OCO3)CC1 (centres unmarked) [Example 351]	10 to 25	> 100	–
O=C(Nc1ncc(Cc2ccncc2Cl)s1)C1(c2ccc3c(c2)OCO3)CC1 [Example 265]	< 10	–	+++ (“+++” means>100%)
CCOc1ccccc1C(NC(CO)CC(C)C)c1cnc(NC(=O)C2(c3ccc4c(c3)OCO4)CC2)s1 (centres unmarked) [Example 476]	–	> 100	–
CC(C)(C)c1cc(NC(=O)C2(c3ccc4c(c3)OCO4)CC2)c(C(N)=O)s1 [Example 290]	< 10	25 to 100	–
C[C@@H](CO)NC(c1cnc(NC(=O)C2(c3ccc4c(c3)OCO4)CC2)s1)c1ccccc1Cl (some centres unmarked) [Example 424]	< 10	> 100	–
COc1ccccc1Cc1cnc(NC(=O)C2(c3ccc4c(c3)OCO4)CC2)o1 [Example 169]	< 10	–	++ (“++” means between 25% to 100%)
COc1ccc(C2(C(=O)Nc3ncc(Cc4ncccc4OC)s3)CC2)cc1 [Example 263]	< 10	–	+++ (“+++” means>100%)
O=C(Nc1ncc(C(NC2CC2)c2ccccc2Cl)s1)C1(c2ccc3c(c2)OCO3)CC1 (centres unmarked) [Example 415]	< 10	> 100	–
O=C(Nc1ncc(C(c2ccccc2C(F)(F)F)N2CCCC2)s1)C1(c2ccc3c(c2)OCO3)CC1 (centres unmarked) [Example 468]	< 10	> 100	–
O=C(Nc1ncc([C@@H](O)c2ccccc2Cl)s1)C1(c2ccc3c(c2)OCO3)CC1 [Example 322]	< 10	> 100	–
O=C(Nc1ncc(C(NCCc2ccccn2)c2ccccc2Cl)s1)C1(c2ccc3c(c2)OCO3)CC1 (centres unmarked) [Example 430]	< 10	> 100	–
COc1ccc(C2(C(=O)Nc3ncc(Cc4ccccc4C(N)=O)s3)CC2)cc1 [Example 76]	< 10	–	+++ (“+++” means>100%)
COCC1CCCN1C(c1ccc(Cl)cc1)c1cnc(NC(=O)C2(c3ccc4c(c3)OCO4)CC2)s1 (centres unmarked) [Example 331]	< 10	> 100	–
O=C(Nc1ncc(C(c2ccccc2Cl)N2CCC(O)C2)s1)C1(c2ccc3c(c2)OCO3)CC1 (centres unmarked) [Example 311]	< 10	> 100	–
COc1ccc(CC2(C(=O)Nc3ncc(Cc4ccccc4OC)s3)CC2)cc1 [Example 200]	< 10	–	+++ (“+++” means>100%)
O=C(Nc1ncc(C(Cc2ccccc2Cl)N2CCOCC2)s1)C1(c2ccc3c(c2)OCO3)CC1 (centres unmarked) [Example 461]	< 10	> 100	–
O=C(Nc1ncc(C(c2ccccc2Cl)N2CC[C@@H](O)C2)s1)C1(c2ccccc2)CC1 (some centres unmarked) [Example 423]	< 10	> 100	–
O=C(Nc1ncc([C@@H](c2ccccc2Cl)N2CCCCC2)s1)C1(c2ccc3c(c2)OCO3)CC1 [Example 211]	< 10	> 100	–
O=C(Nc1ncc(C(NC2CCC2)c2ccccc2Cl)s1)C1(c2ccc3c(c2)OCO3)CC1 (centres unmarked) [Example 417]	< 10	> 100	–
COc1ccc(C2(C(=O)Nc3ncc(Cc4ccccc4C#N)s3)CC2)cc1OC [Example 61]	< 10	–	+++ (“+++” means>100%)
COc1ccc(OC)c(-c2csc(NC(=O)C3(c4ccc5c(c4)OCO5)CC3)n2)c1 [Example 113]	< 10	–	+++ (“+++” means>100%)
CCOC(=O)c1sc(NC(=O)C2(c3ccc4c(c3)OCO4)CC2)nc1C(C)C [Example 109]	< 10	–	+++ (“+++” means>100%)
